Test results: ChEMBL document CHEMBL1909046, “DrugMatrix in vitro pharmacology data”

Experiments:
[1] = biological target: T1, Angiotensin-converting enzyme (Oryctolagus cuniculus, UniProt P12822); format: tissue-based, Lung;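 note: enzymatic inhibition of angiotensin-converting enzyme measured with FAPGG as the substrate; in other assays of this panel Not Active means under 50% inhibition at 10 µM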
T1 sequence (P12822 whole entry): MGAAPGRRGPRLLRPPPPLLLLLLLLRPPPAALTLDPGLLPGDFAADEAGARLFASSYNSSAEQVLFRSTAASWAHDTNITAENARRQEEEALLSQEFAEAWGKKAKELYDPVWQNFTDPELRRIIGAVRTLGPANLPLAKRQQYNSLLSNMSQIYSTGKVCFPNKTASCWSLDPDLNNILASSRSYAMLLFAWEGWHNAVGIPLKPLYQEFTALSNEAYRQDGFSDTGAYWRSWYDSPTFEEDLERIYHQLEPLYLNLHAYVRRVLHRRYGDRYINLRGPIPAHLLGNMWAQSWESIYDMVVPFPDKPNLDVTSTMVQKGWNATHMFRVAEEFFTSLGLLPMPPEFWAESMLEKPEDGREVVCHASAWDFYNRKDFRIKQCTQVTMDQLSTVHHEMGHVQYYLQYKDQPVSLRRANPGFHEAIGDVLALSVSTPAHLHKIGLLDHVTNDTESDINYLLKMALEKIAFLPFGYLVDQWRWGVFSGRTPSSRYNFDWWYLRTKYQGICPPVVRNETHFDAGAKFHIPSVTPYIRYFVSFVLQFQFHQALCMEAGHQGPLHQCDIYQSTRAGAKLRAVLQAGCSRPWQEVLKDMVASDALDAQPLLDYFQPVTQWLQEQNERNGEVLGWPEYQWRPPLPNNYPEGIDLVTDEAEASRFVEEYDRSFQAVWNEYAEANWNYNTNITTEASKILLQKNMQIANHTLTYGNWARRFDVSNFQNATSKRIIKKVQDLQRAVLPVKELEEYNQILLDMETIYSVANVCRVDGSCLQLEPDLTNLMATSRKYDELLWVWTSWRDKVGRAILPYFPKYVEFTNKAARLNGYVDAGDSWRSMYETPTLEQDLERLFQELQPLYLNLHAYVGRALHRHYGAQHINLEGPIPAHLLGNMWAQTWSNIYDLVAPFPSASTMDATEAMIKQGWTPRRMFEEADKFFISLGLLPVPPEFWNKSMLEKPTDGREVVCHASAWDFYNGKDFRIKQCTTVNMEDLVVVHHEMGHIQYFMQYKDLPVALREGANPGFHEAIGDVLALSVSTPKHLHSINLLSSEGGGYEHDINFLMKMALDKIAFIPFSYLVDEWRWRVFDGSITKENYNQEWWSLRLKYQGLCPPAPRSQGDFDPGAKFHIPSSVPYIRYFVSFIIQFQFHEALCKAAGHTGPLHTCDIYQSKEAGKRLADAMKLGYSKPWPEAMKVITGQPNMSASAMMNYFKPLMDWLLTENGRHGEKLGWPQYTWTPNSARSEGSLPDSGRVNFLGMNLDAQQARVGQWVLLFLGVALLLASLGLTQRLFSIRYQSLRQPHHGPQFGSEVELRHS

[2] = biological target: Platelet-activating factor receptor (Homo sapiens, UniProt P25105); test: biochemical; format: tissue-based; note: in other assays of this panel Not Active means under 50% inhibition at 10 µM
Chain of Platelet-activating factor receptor (P25105 whole entry): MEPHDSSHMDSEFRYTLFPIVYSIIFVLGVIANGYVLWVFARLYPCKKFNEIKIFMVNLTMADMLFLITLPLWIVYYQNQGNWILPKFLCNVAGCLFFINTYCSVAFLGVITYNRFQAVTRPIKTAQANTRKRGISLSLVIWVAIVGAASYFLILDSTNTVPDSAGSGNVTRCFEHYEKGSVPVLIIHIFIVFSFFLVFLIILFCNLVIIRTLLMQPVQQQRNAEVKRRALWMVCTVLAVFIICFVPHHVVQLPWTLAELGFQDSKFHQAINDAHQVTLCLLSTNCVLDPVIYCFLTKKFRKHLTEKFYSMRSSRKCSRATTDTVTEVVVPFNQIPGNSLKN

[3] = biological target: Protein kinase C alpha type (Homo sapiens, UniProt P17252); format: cell-based; settings: sf9;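 note: inhibition of PKCalpha kinase activity measured in an enzyme assay with histone as the phosphorylation substrate; in other assays of this panel Not Active means under 50% inhibition at 10 µM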
[4] = DRUGMATRIX: Tumor Necrosis Factor (TNF), Non-Selective radioligand binding (ligand: [125I] TNF-alpha); format: cell membranes, Membrane; settings: u-937; Not Active = under 50% inhibition at 10 µM
[5] = biological target: T2, 5-hydroxytryptamine receptor 2C (Homo sapiens, UniProt P28335); test: DRUGMATRIX: Serotonin (5-Hydroxytryptamine) 5-HT2C radioligand binding (ligand: [3H] Mesulergine); format: cell membranes, CHO-K1, Membrane; settings: Not Active = under 50% inhibition at 10 µM
T2 sequence (P28335 whole entry): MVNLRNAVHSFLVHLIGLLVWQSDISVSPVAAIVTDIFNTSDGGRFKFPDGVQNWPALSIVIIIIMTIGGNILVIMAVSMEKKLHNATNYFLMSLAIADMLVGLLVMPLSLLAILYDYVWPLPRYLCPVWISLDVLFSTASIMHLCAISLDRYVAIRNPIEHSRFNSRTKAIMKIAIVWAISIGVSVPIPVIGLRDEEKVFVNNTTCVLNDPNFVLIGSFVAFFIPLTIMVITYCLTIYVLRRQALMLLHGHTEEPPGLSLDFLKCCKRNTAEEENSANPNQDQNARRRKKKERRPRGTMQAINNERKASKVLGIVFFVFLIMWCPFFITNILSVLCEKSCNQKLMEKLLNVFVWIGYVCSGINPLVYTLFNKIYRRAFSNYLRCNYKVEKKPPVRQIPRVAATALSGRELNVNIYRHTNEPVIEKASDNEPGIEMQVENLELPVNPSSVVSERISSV

[6] = biological target: T3, 5-hydroxytryptamine receptor 1A (Rattus norvegicus, UniProt P19327); format: cell membranes, CHO-K1, Membrane; note: in other assays of this panel Not Active means under 50% inhibition at 10 µM
T3 sequence (P19327 whole entry): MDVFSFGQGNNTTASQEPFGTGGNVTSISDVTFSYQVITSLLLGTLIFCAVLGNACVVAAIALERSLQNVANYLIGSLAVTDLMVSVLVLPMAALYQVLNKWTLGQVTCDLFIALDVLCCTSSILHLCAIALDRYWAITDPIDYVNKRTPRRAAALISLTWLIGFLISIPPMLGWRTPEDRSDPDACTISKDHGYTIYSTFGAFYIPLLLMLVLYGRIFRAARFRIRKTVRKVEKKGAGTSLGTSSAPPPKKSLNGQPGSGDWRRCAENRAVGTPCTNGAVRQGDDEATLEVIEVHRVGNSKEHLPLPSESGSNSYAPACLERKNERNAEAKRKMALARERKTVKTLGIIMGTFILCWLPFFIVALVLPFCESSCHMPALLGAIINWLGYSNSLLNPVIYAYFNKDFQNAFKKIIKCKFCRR

Row | Compound | IC50 [1] | IC50 ([2]; platelet) | IC50 [3] | IC50 [4] | Ki [4] | IC50 ([5]; cho-k1) | IC50 ([6]; cho-k1) | IC50 ([6]; read-out: IC50) [µM] | Ki ([6]; read-out: Ki) [µM] | Ki [1] | Ki ([2]; platelet) | Ki [3] | Ki ([5]; cho-k1) | Ki ([6]; cho-k1) | IC50 ([2]; read-out: IC50) [µM] | Ki ([2]; read-out: Ki) [µM] | IC50 ([5]; read-out: IC50) [µM] | Ki ([5]; read-out: Ki) [µM]
1 | C=C(CC)C(=O)c1ccc(OCC(=O)O)c(Cl)c1Cl [ETHACRYNIC ACID] | Not Active | Not Active | Not Active | Not Active | Not Active | Not Active | Not Active |  |  |  |  |  |  |  |  |  |  | 
2 | CC(C(=O)O)c1ccc(-c2ccccc2)c(F)c1 (stereo unspecified) [FLURBIPROFEN] | Not Active | Not Active | Not Active | Not Active | Not Active | Not Active | Not Active |  |  |  |  |  |  |  |  |  |  | 
3 | COc1ccccc1OCC(O)COC(N)=O (stereo unspecified) [METHOCARBAMOL] | Not Active | Not Active | Not Active | Not Active | Not Active | Not Active | Not Active |  |  |  |  |  |  |  |  |  |  | 
4 | CC(C(=O)O)c1ccc(CC2CCCC2=O)cc1 (stereo unspecified) [LOXOPROFEN] | Not Active | Not Active | Not Active | Not Active | Not Active | Not Active | Not Active |  |  |  |  |  |  |  |  |  |  | 
5 | CCCCC1C(=O)N(c2ccccc2)N(c2ccccc2)C1=O [PHENYLBUTAZONE] | Not Active | Not Active | Not Active | Not Active | Not Active | Not Active | Not Active |  |  |  |  |  |  |  |  |  |  | 
6 | CCN[C@@H](C)Cc1cccc(C(F)(F)F)c1 [DEXFENFLURAMINE] | Not Active | Not Active | Not Active | Not Active | Not Active | Not Active |  | 3.4 | 1.94 |  |  |  |  |  |  |  |  | 
7 | COc1ccccc1OCC(O)CO (stereo unspecified) [GUAIFENESIN] | Not Active | Not Active | Not Active | Not Active | Not Active | Not Active | Not Active |  |  |  |  |  |  |  |  |  |  | 
8 | CCC(=O)O[C@H]1[C@H](O[C@@H]2[C@@H](C)[C@H](O[C@H]3C[C@@](C)(OC)[C@@H](O)[C@H](C)O3)[C@@H](C)C(=O)O[C@H](CC)[C@@](C)(O)[C@H](O)[C@@H](C)C(=O)[C@H](C)C[C@@]2(C)O)O[C@H](C)C[C@@H]1N(C)C [ERYTHROMYCIN PROPIONATE] | Not Active | Not Active | Not Active | Not Active | Not Active | Not Active | Not Active |  |  |  |  |  |  |  |  |  |  | 
9 | C=C1/C(=C\C=C2/CCC[C@]3(C)[C@@H]([C@H](C)CCCC(C)C)CC[C@@H]23)C[C@@H](O)C[C@@H]1O [ALFACALCIDOL] | Not Active | Not Active | Not Active | Not Active | Not Active | Not Active | Not Active |  |  |  |  |  |  |  |  |  |  | 
10 | CS(=O)(=O)OCCCCOS(C)(=O)=O [BUSULFAN] | Not Active | Not Active | Not Active | Not Active | Not Active | Not Active | Not Active |  |  |  |  |  |  |  |  |  |  | 
11 | C[C@]12CCC(=O)C=C1CC[C@@H]1[C@@H]2[C@@H](O)C[C@@]2(C)[C@H]1CC[C@]2(O)C(=O)CO [HYDROCORTISONE] | Not Active | Not Active | Not Active | Not Active | Not Active | Not Active | Not Active |  |  |  |  |  |  |  |  |  |  | 
12 | POLYVINYL ALCOHOL | Not Active | Not Active | Not Active | Not Active | Not Active | Not Active | Not Active |  |  | Not Active | Not Active | Not Active | Not Active | Not Active |  |  |  | 
13 | COBALT(II) ACETYLACETONATE | Not Active | Not Active | Not Active | Not Active | Not Active | Not Active | Not Active |  |  | Not Active | Not Active | Not Active | Not Active | Not Active |  |  |  | 
14 | Nc1nc(N)nc(NC2CC2)n1 [CYROMAZINE] | Not Active | Not Active | Not Active | Not Active | Not Active | Not Active | Not Active |  |  |  |  |  |  |  |  |  |  | 
15 | CN(C(=O)CCCOc1ccc2[nH]c(=O)ccc2c1)C1CCCCC1 [CILOSTAMIDE] | Not Active |  | Not Active | Not Active | Not Active | Not Active | Not Active |  |  |  |  |  |  |  | 3.69 | 1.92 |  | 
16 | CC(C)(Oc1ccc(C2CC2(Cl)Cl)cc1)C(=O)O (stereo unspecified) [CIPROFIBRATE] | Not Active | Not Active | Not Active | Not Active | Not Active | Not Active | Not Active |  |  |  |  |  |  |  |  |  |  | 
17 | Cc1cn[nH]c1 [FOMEPIZOLE] | Not Active | Not Active | Not Active | Not Active | Not Active | Not Active | Not Active |  |  |  |  |  |  |  |  |  |  | 
18 | CCc1oc2ccccc2c1C(=O)c1cc(Br)c(O)c(Br)c1 [BENZBROMARONE] | Not Active | Not Active | Not Active | Not Active | Not Active | Not Active | Not Active |  |  |  |  |  |  |  |  |  |  | 
19 | CN1C[C@H](C(=O)N[C@]2(C)O[C@@]3(O)[C@@H]4CCCN4C(=O)[C@H](Cc4ccccc4)N3C2=O)C[C@@H]2c3cccc4[nH]cc(c34)C[C@H]21 [DIHYDROERGOTAMINE] | Not Active | Not Active | Not Active | Not Active | Not Active |  |  | 0.000659 | 0.000377 |  |  |  |  |  |  |  | 0.09 | 0.047
20 | CNC(=C[N+](=O)[O-])NCCSCc1csc(CN(C)C)n1 [NIZATIDINE] | Not Active | Not Active | Not Active | Not Active | Not Active | Not Active | Not Active |  |  |  |  |  |  |  |  |  |  | 
21 | CCOC(=O)[C@H](CCc1ccccc1)N[C@@H](C)C(=O)N1Cc2ccccc2C[C@H]1C(=O)O |  | Not Active | Not Active | Not Active | Not Active | Not Active | Not Active |  |  |  |  |  |  |  |  |  |  | 
22 | CCOC(=O)[C@H](CCc1ccccc1)N[C@@H](C)C(=O)N1CCC[C@H]1C(=O)O |  | Not Active | Not Active | Not Active | Not Active | Not Active | Not Active |  |  |  |  |  |  |  |  |  |  | 
